Results as given in patent publication US12121498B2 (priority 2018, dated 2024).
pIC50: −log10 of the molar value.

Assays:
in vivo = type: in vivo, SD rats; details: rats; for concentration at 5 min / concentration at 15 min / concentration at 30 min / concentration at 1 h / concentration at 2 h / concentration at 4 h: SD, rat, in vivo, iv, average, read-out: Drug concentrations in brain tissue; for concentration at 5 min: 5 min after administration; for concentration at 15 min: 15 min after administration; for concentration at 30 min: 30 min after administration; for concentration at 1 h: 1 h after administration; for concentration at 2 h: 2 h after administration; for concentration at 4 h: 4 h after administration
Procedure: 1. Comparative Assay for the Distribution of Compound XA-1-7 and Dipropofol (3,3′,5,5′-Tetraisopropyl Biphenyl-4,4′-Diol) in the Brain Tissue of Rats after Intravenous Administration
72 SD rats, each weighing 200 to 220 g, were randomly divided into 12 groups (6 per group at a time), and fasted for 12 hours before administration. Compound XA-1-7 or dipropofol was injected intravenously at a dose of 45 mg/kg, and the rats were sacrificed at 5 min, 15 min, 30 min, 1 h, 2 h, and 4 h after administration, immediately after which the brain tissue was removed, rinsed with ice-cold distilled water, blotted up, and cryopreserved at −40° C. The concentrations of Compound XA-1-7 or dipropofol in the brain tissue of rats at different time points after administration were measured by LC-MS/MS.

[1] = molecular target: GABAA, Chloride Channel, TBPS; assay: Radioligand ([35S]TBPS)-receptor competitive binding assay for GABAA receptor; parameters: species or system Rat; details: for pIC50: [35S]TBPS, test concentration 30, 10, 3, 1, 0.3 uM; for Affinity for the GABAA receptor: result in words, compared with dipropofol

Compound	concentration at 5 min (in vivo; i.v. 45 mg/kg)	concentration at 15 min (in vivo; i.v. 45 mg/kg)	concentration at 30 min (in vivo; i.v. 45 mg/kg)	concentration at 1 h (in vivo; i.v. 45 mg/kg)	concentration at 2 h (in vivo; i.v. 45 mg/kg)	concentration at 4 h (in vivo; i.v. 45 mg/kg)	Concentration in the brain tissue relative to that of the dipropofol (in vivo; 5 minutes after intravenous injection, 45 mg/kg)	AUC0-4 h in the brain tissue relative to that of the dipropofol (in vivo; i.v. 45 mg/kg)	Peak time of the concentration in the brain tissue (in vivo; i.v. 45 mg/kg)	Delivering speed into the brain and level in the brain compared with dipropofol (in vivo; intravenous administration at the same dosage, result in words)	pIC50 [1]	Affinity for the GABAA receptor [1]
CCCc1cc(-c2cc(C(C)C)c(O)c(C(C)C)c2)cc(CCC)c1O [Compound 1, 3,5-diisopropyl-3′,5′-dipropyl-[1,1′-biphenyl]-4,4′-diol]	37600 ng/g	39600 ng/g	38100 ng/g	33900 ng/g	24600 ng/g	6870 ng/g	about 3 times	about 1.36 times	15 min	significantly higher	5.74	high affinity
CCCc1cc(-c2cc(C(C)C)c(O)c(C(C)C)c2)cc(C(C)C)c1O [Compound 2, 3,3′,5-triisopropyl-5′-propyl-biphenyl-4,4′-diol]	–	–	–	–	–	–	–	–	–	–	5.68	high affinity
CCCc1cc(-c2cc(CCC)c(O)c(C(C)C)c2)cc(CCC)c1O [Compound 3, 3-isopropyl-3′,5,5′-tripropyl-biphenyl-4,4′-diol]	–	–	–	–	–	–	–	–	–	–	5.57	high affinity
CC(C)c1cc(-c2cc(C(C)C)c(O)c(C(C)C)c2)cc(C(C)C)c1O [Dipropofol, 3,3′,5,5′-tetraisopropylbiphenyl-4,4′-diol, reference compound]	12800 ng/g	24100 ng/g	32500 ng/g	26600 ng/g	17900 ng/g	5520 ng/g	–	–	30 min	–	5.69	–
